In US5403574A, “Evaluation and treatment of the multidrug resistance phenotype” (priority 1992, dated 1995):
“Also recorded” adds a separate entry of the source.

Experiments:
P-glycoprotein = conditions: cited from earlier work
[1] = system: P-glycoprotein enriched membrane vesicles; conditions: multidrug resistant cell vesicles; cited from earlier work
mitochondrial function = conditions: typical loading activities; cited from earlier work
cells and mitochondria = conditions: cited from earlier work
Alex and Alex/A.5 cells = experiment: Cell survival / cytotoxicity, Alex and Alex/A.5 cells (sulforhodamine B); assay type: cell-based, human
Method: (§1) FIG. 5. Cell survival studies and LD50 determination showing cytotoxicity of a ^99 Tc-isonitrile complex that is transported by the P-glycoprotein in vitro. Survival of parental V79 and multidrug resistant LZ cells (A) and parental Alex and multidrug resistant Alex/A.5 cells (B) in increasing concentrations of carrier-added ^99 Tc-MIBI. Methods: Cell survival assays were performed by plating 4,000-20,000 cells per well in 96 well microtiter plates in triplicate in three separate experiments. V79 and LZ cells were grown essentially as described in Example 2 while Alex and Alex/A.5 were grown as described by Goldstein, L., et al., J. Natl. Cancer Inst. 81:116 (1989). Multidrug resistant cells were cultured in drug free media for 72-96 hours prior to culture in ^99 Tc-MIBI. Surviving cells were assayed by staining with sulforhodamine B (Mazzanti, R., et al., J. Cell Pharmacol. 1:50 (1990)) at 72 hours for V79 and LZ cells or 96 hours for Alex and Alex A.5 cells. Survival was expressed as the percentage of surviving cells relative to growth in alpha-MEM media without ^99 Tc-MIBI. […] LD50 determinations were obtained by interpolation from the cell survival curves.
(§2) Micromolar concentrations of carrier-added 99Tc-MIBI is shown to be cytotoxic in hamster lung fibroblast cells (A) and human carcinoma cells (B) (FIG. 5). […]

[2] = system: V79 cells (multidrug resistance P-glycoprotein)
Method: (§3) Accumulation of Tc-MIBI in LZ cells (highly expressing multidrug resistance) (0) and V79 cells (modestly expressing multidrug resistance) (.cndot.).
(§4) Cell-associated activity was then determined.

[3] = whole body imaging agent; cited from earlier work
[4] = system: LZ cells (multidrug resistance P-glycoprotein)
Method: as §3, §4

V79 and LZ cells = experiment: Cell survival / cytotoxicity, V79 and LZ cells (sulforhodamine B); assay type: cell-based, hamster; conditions: 72 hours
Method: as §1, §2

tumors = conditions: human, in vivo; cited from earlier work

SMILES: COc1cccc2c1C(=O)c1c(O)c3c(c(O)c1C2=O)C[C@@](O)(C(C)=O)C[C@@H]3O[C@H]1C[C@H](N)[C@H](O)[C@H](C)O1 [daunomycin]
- Inhibition of photoaffinity labeling of P-glycoprotein by vinblastine analog (P-glycoprotein): inhibited

SMILES: CC[C@]1(O)C[C@H]2CN(CCc3c([nH]c4ccccc34)[C@@](C(=O)OC)(c3cc4c(cc3OC)N(C=O)[C@H]3[C@@](O)(C(=O)OC)[C@H](OC(C)=O)[C@]5(CC)C=CCN6CC[C@]43[C@@H]65)C2)C1 [vincristine]
- Inhibition of photoaffinity labeling of P-glycoprotein by vinblastine analog (P-glycoprotein): inhibited
- Inhibition of labeled vinblastine accumulation in vesicles [1]: inhibited

SMILES: C=C[C@H]1C[N@@]2CC[C@H]1C[C@@H]2[C@@H](O)c1ccnc2ccc(OC)cc12 [Quinidine]
- Inhibition of photoaffinity labeling of P-glycoprotein by vinblastine analog (P-glycoprotein): inhibited

SMILES: COC(=O)[C@H]1[C@H]2C[C@@H]3c4[nH]c5cc(OC)ccc5c4CCN3C[C@H]2C[C@@H](OC(=O)c2cc(OC)c(OC)c(OC)c2)[C@@H]1OC [reserpine]
- Inhibition of photoaffinity labeling of P-glycoprotein by vinblastine analog (P-glycoprotein): inhibited

SMILES: COC(=O)c1ccccc1-c1c2ccc(=N)cc-2oc2cc(N)ccc12 [rhodamine 123]
- Toxic effects on mitochondrial function (mitochondrial function): toxic effects on mitochondrial function
- Toxicity to cells and mitochondria (cells and mitochondria): toxic to cells and mitochondria

SMILES: c1ccc([P+](c2ccccc2)(c2ccccc2)c2ccccc2)cc1 [TPP^+]
- Toxic effects on mitochondrial function (mitochondrial function): toxic effects on mitochondrial function

SMILES: [99Tc].[C-]#[N+]CC(C)(C)OC.[C-]#[N+]CC(C)(C)OC.[C-]#[N+]CC(C)(C)OC.[C-]#[N+]CC(C)(C)OC.[C-]#[N+]CC(C)(C)OC.[C-]#[N+]CC(C)(C)OC [Tc-MIBI, hexakis (2-methoxyisobutyl isonitrile) technetium-99m (I)]
- Toxicity in drug-sensitive human Alexander cells compared to multidrug-resistant derivative (Alex/A.5) (Alex and Alex/A.5 cells; Alex vs Alex/A.5, 96 hours): 13 fold
- Cytotoxicity in human carcinoma cells (Alex and Alex/A.5 cells; micromolar concentrations, carrier-added, 96 hours): cytotoxic
- Plateau net accumulation in V79 cells relative to LZ cells [2]: 20 fold
- Toxic activity at imaging doses [3]: no toxic activity; also recorded: without chemotoxic effects
- Net accumulation of Tc-MIBI [4]: 0.3 fmoles Tc-MIBI/mg protein per nmolar extracellular Tc-MIBI
- Toxicity in drug-sensitive V79 compared to multidrug-resistant derivative (LZ) (V79 and LZ cells; V79 vs LZ): 11 fold
- Cytotoxicity in hamster lung fibroblast cells (V79 and LZ cells; micromolar concentrations, carrier-added): cytotoxic
- Uptake within known bronchial carcinomas (tumors): uptake
- Uptake within mediastinal and pulmonary metastasis from thyroid cancer (tumors): uptake
- Uptake within untreated malignant lung lesions (tumors): uptake

SMILES: CC[C@]1(O)C[C@@H]2CN(CCc3c([nH]c4ccccc34)[C@@](C(=O)OC)(c3cc4c(cc3OC)N(C)[C@H]3[C@@](O)(C(=O)OC)[C@H](OC(C)=O)[C@]5(CC)C=CCN6CC[C@]43[C@@H]65)C2)C1 [vinblastine]
- Inhibition of labeled vinblastine accumulation in vesicles [1]: inhibited

SMILES: CCOC(=O)C1=C(C)NC(C)=C(C(=O)OCCNC(=O)c2ccc(N=[N+]=[N-])cc2)C1c1ccccc1C(F)(F)F (centres unmarked) [azidopine]
- Inhibition of photoaffinity labeling of P-glycoprotein by vinblastine analog (P-glycoprotein): inhibited
